Assay results from PubChem BioAssay (NCI).
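Five concentrations, 48 hours, 96-well plates. At the TGI there is no net growth.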

Assays:
Assay in all cases: NCI anticancer screen, dose series, 48 h
786-0 renal = tested on: 786-0 renal
A549 NSCLC = tested on: A549 NSCLC
ACHN renal = tested on: ACHN renal
CAKI-1 renal = tested on: CAKI-1 renal
CCRF-CEM leukemia = tested on: CCRF-CEM leukemia
COLO 205 colon = tested on: COLO 205 colon
DU-145 prostate = tested on: DU-145 prostate
EKVX NSCLC = tested on: EKVX NSCLC
HCC-2998 colon = tested on: HCC-2998 colon
HCT-116 colon = tested on: HCT-116 colon
HCT-15 colon = tested on: HCT-15 colon
HL-60(TB) leukemia = tested on: HL-60(TB) leukemia
HOP-62 NSCLC = tested on: HOP-62 NSCLC
HOP-92 NSCLC = tested on: HOP-92 NSCLC
HS 578T breast = tested on: HS 578T breast
IGROV1 ovarian = tested on: IGROV1 ovarian
K-562 leukemia = tested on: K-562 leukemia
KM12 colon = tested on: KM12 colon
LOX IMVI melanoma = tested on: LOX IMVI melanoma
M14 melanoma = tested on: M14 melanoma
MALME-3M melanoma = tested on: MALME-3M melanoma
MCF7 breast = tested on: MCF7 breast
MDA-MB-231 breast = tested on: MDA-MB-231 breast
MDA-N = tested on: MDA-N
MOLT-4 leukemia = tested on: MOLT-4 leukemia
NCI-H226 lung = tested on: NCI-H226 lung
NCI-H23 lung = tested on: NCI-H23 lung
NCI-H460 lung = tested on: NCI-H460 lung
NCI-H522 lung = tested on: NCI-H522 lung
NCI/ADR-RES ovarian = tested on: NCI/ADR-RES ovarian
OVCAR-3 ovarian = tested on: OVCAR-3 ovarian
OVCAR-5 ovarian = tested on: OVCAR-5 ovarian
OVCAR-8 ovarian = tested on: OVCAR-8 ovarian
PC-3 prostate = tested on: PC-3 prostate
RPMI-8226 leukemia = tested on: RPMI-8226 leukemia
SK-MEL-2 melanoma = tested on: SK-MEL-2 melanoma
SK-MEL-28 melanoma = tested on: SK-MEL-28 melanoma
SK-MEL-5 melanoma = tested on: SK-MEL-5 melanoma
SN12C renal = tested on: SN12C renal
SR leukemia = tested on: SR leukemia
SW-620 colon = tested on: SW-620 colon
T-47D breast = tested on: T-47D breast
TK-10 renal = tested on: TK-10 renal
UACC-257 melanoma = tested on: UACC-257 melanoma
UO-31 renal = tested on: UO-31 renal

Measured: TGI

Cn1c(=O)c2[nH]cnc2n(C)c1=O
> 100 µM: all assays above
